Experimental data reported in paper PMC8264259, “A Novel Ruthenium(II) Complex With Lapachol Induces G2/M Phase Arrest Through Aurora-B Kinase Down-Regulation and ROS-Mediated Apoptosis in Human Prostate Adenocarcinoma Cells” (Frontiers in Oncology, 2021).

Assays:
DU-145 cells [1] = test: Gene expression analysis by qPCR array (Human Cancer Drug Targets); assay type: cell-based; settings: DU-145, 1.0 µM, 12 h, mRNA, ΔΔCt vs vehicle
Description: Briefly, DU-145 cells were seeded (1.0 × 10^6 cells/well) into six-well plates and maintained to attach at 37°C in 5% CO2. After 24 h, the cells were treated with 1.0 μM of the complex (2). DMSO (0.1% v/v) was used as the vehicle control. After 12 h of incubation, total RNA was isolated from the cells using the RNeasy® Mini kit (Qiagen, Germany) according to the manufacturer’s instructions. RNA was quantified by NanoDrop spectrophotometer (ND-2000; Thermo Fischer Scientific). The Agilent 2100 Bioanalyzer and Agilent RNA 6000 Nanochip kits were used to assess the total RNA quality as per manual instruction (Agilent, USA). The Agilent 2100 Expert software (Version B.02.07.SI532) was used with the Eukaryote Total RNA Nano assay on the Agilent 2100 bioanalyzer. No significant differences in RIN values were observed across the samples. Complementary DNA strands were synthesized using the RT^2 First Strand kit (Qiagen, Germany), following the manufacturer’s instructions. Gene expression profiling was performed using the RT^2 Profiler™ PCR Array Human Cancer Drug Targets (PAHS 507Z, Qiagen) by qPCR. The reactions were conducted in the Applied Biosystems 7500 PCR System (Applied Biosystems, USA) thermocycler. The plate was heated to 95°C for 10 min, followed by 40 cycles of 95°C for 15 s and 60°C for 1 min, followed by the dissociation curve. The expression profile of 84 key drug targets genes was analyzed. Fold changes amplification for targeted genes was normalized to the housekeeping genes GAPDH and RPLP0 by the delta–delta cycle threshold method (ΔΔCt), and the cells treated with vehicle control (0.1% of DMSO v/v) was used as calibrator. The threshold cycle values of control wells were all within the ranges recommended by the PCR array user manual. Three independent biological replicates were performed. All experiments were performed in DNase/RNase free conditions. Genes were considered differentially regulated if the difference was ≥1.8-fold, which means that the gene expression in the compound-treated cells was at 1.8-fold that in the negative control-treated cells. Differences were considered significant at p ≤ 0.05. Statistical analysis of two groups was performed automatically according to the GeneGlobe Data Analysis Center (Qiagen, USA; https://geneglobe.qiagen.com/us/analyze).

calf thymus DNA (ct-DNA) = test: DNA minor groove interaction assay with Hoechst 33258; assay type: binding; settings: Hoechst 2.7 µM, ct-DNA 125 µM, complex 0-125 µM, 37°C
Description: DNA minor groove interaction was assessed by examining the ability of the complexes to displace Hoechst 33258 (Thermo Fischer Scientific) from calf thymus DNA (ct-DNA) (Sigma-Aldrich). The ct-DNA solution was prepared by dilution of 2 mg of the ct-DNA in 1 ml of Tris-HCl buffer (4.5 mM Tris-HCl, 0.5 mM Tris-base, 50 mM NaCl, pH 7.4), and the concentration was determined by absorption spectrophotometric using the molar absorption coefficient 6600 mol^−1 dm^3 cm^−1 at 260 nm ([38]). Thus, the ct-DNA (125 µM) was incubated with Hoechst (2.7 µM), and the extinction of the fluorescence intensity was monitored by the addition of different concentrations (0–125 µM) of both complexes in Tris-HCl containing 10% of DMSO. Fluorescence emission spectra were recorded from […] to 500 nm after excitation wavelength of 343 nm, using an opaque 96-well plate, in a Synergy H1 Fluorescence Spectrophotometer (BioTek®), at 37°C.

pBR322 plasmid DNA = test: DNA interactions assay with pBR322 plasmid (agarose gel electrophoresis); assay type: biochemical; settings: 1.0 μM, 37°C, 18 h
Description: Plasmid pBR322 (38 µM, Sigma-Aldrich) was mixed with different concentrations (0.125–1.0 µM) of both complexes and incubated at 37°C for 18 h. Then, the loading buffer was added and the samples were analyzed by agarose gel electrophoresis for 90 min in 1% agarose gel using a Tris-acetate-EDTA (TAE) buffer (0.45 M Tris-HCl, 0.45 M acetic acid, 10 mM EDTA, pH 7.4), and ethidium bromide was employed for staining. Bands were visualized with a ChemiDoc MP imager (BioRad, USA).

DU-145 cells [2] = test: Cellular ROS/Superoxide detection; assay type: cell-based, human
Description: Total intracellular ROS generation was measured using 2′,7′-dichlorodihydrofluorescein diacetate (H2DCFDA, Sigma-Aldrich), as reported by ([36]). Briefly, DU-145 cells were seeded (1.5 × 10^4 cells/well) into black 96-well plates and maintained to attach at 37°C in 5% CO2. […] After that, cells were labeled with H2DCFDA solution at 5 μM in N,N-dimethylformamide (Sigma-Aldrich). After that, fluorescence intensity was measured in a Synergy H1 Fluorescence Spectrophotometer (BioTek®), at the excitation and emission wavelengths of 495 and 527 nm, respectively. Thereafter, ROS/Superoxide levels were measured using Cellular ROS/Superoxide Detection Assay Kit (Abcam®). Cells were seeded (1.5 × 10^4 cells/well) into black 96-well plates and maintained to attach at 37°C in 5% CO2. After 24 h, cells were treated with complex (2) (0.25, 0.50, 1.0, and 1.5 μM) for 24 h. […] Fluorescence was measured in quadruplicates using a fluorescent microplate reader Synergy H1 (BioTek®) with standard fluorescein (Ex = 488 nm, Em = 520 nm) and rhodamine (Ex = 550 nm, Em = 610 nm) filter sets for ROS and superoxide determination, respectively. […] Cells were labeled as described above, and the ROS levels were measured. […] After 24 h of treatment, the cell viability was determined by Alamar blue® assay as described above.

## CC(C)=CCC1=C([O-])C(=O)c2ccccc2C1=O.F[P-](F)(F)(F)(F)F.[Ru+2].c1ccc(P(CP(c2ccccc2)c2ccccc2)c2ccccc2)cc1.c1cnc2c(c1)ccc1cccnc12 [complex (2), [Ru(Lap)(dppm)(phen)]PF6]
DU-145 cells [1]
  Fold change, AKT1: −2.6 fold
  Fold change, AKT2: −2.6 fold
  Fold change, AURKA: -5.3 fold
  Fold change, AURKB: -11.1 fold
  Fold change, AURKC: -3.0 fold
  Fold change, BCL2: -4.1 fold
  Fold change, BIRC5: -6.4 fold
  Fold change, CDC25A: −2.6 fold
  Fold change, CDK1: -4.5 fold
  Fold change, CDK2: −2.7 fold
  Fold change, CDK4: -4.6 fold
  Fold change, CDK5: −3.2 fold
  Fold change, EGFR: −4.1 fold
  Fold change, ERBB2: −2.4 fold
  Fold change, GSTP1: −2.9 fold
  Fold change, HDAC8: −1.8 fold
  Fold change, IGF1R: −2.7 fold
  Fold change, MDM4: 2.8 fold
  Fold change, MTOR: −3.8 fold
  Fold change, PARP1: −2.7 fold
  Fold change, PARP2: −3.0 fold
  Fold change, PDGFRB: −2.0 fold
  Fold change, PIK3CA: −2.7 fold
  Fold change, PTGS2: 2.1 fold
  Fold change, TOP2A: −2.1 fold
  Fold change, TOP2B: −2.8 fold
Calf thymus DNA (ct-DNA)
  displacement of Hoechst 33258 from ct-DNA (fluorescence): decrease the fluorescence of the Hoechst-DNA system
pBR322 plasmid DNA
  nuclease activity on pBR322 (supercoiled to linear): single-strand DNA cleavage
DU-145 cells [2]; DU-145, 24 h exposure
  total ROS levels: significantly higher
DU-145 cells [2]; DU-145, cotreatment with 5 mM NAC, 24 h
  intracellular ROS with ROS scavenger NAC: inhibited the formation of intracellular ROS
